Reference: patent publication US20170065564A1, “BIS-CYCLIC GUANIDINE COMPOUND COMPOSITIONS, METHODS OF USE AND TREATMENT THEREOF” (University of South Florida, priority 2014, published 2017)

Columns and labels:
Type in all cases: cell-based
[1] = tested on: Klebsiella pneumoniae; assay: MIC micro broth dilution assay; parameters: key to stacked score activity, 100/MIC, K: stacked score = 100/MIC; details: K. pneumoniae
Procedure: (§1) For this study we used a representative panel of multi-drug resistant clinical ESKAPE pathogen isolates (Supplemental Table S6).^42 43 3a, 44 45 Gram-positive organisms were grown in tryptic soy broth media (TSB), whilst Gram-negative organisms were grown in lysogeny Broth (LB), as described by us previously. ^43 MIC and MBC determination assays.
(§2) Broth cultures of ESKAPE strains were grown overnight before being diluted 1 in 1,000 in fresh media. Sterile 96-well plates were loaded with culture and compounds (in DMF) were added at decreasing concentrations to equal a total volume of 200 μl per well. Care was taken to not add more than 2.0% DMF to any well. Plates were then incubated at 37° C., and MICs determined after 24 hours by visual inspection for a lack of turbidity in wells. All assays were performed in triplicate with identical results obtained. For both the scaffold ranking and positional scanning samples, relative broad-spectrum activity was determined via stacked scores: […]

[2] = tested on: Acinetobacter baumannii; assay: MIC micro broth dilution assay; parameters: key to stacked score activity, 100/MIC, A: stacked score = 100/MIC; details: A. baumannii
Procedure: as §1, §2

[3] = tested on: Enterococcus faecium; assay: MIC micro broth dilution assay; parameters: key to stacked score activity, 100/MIC, E: stacked score = 100/MIC; details: E. faecium
Procedure: as §1, §2

[4] = tested on: Enterobacter cloacae; assay: MIC micro broth dilution assay; parameters: key to stacked score activity, 100/MIC, E: stacked score = 100/MIC; details: E. cloacae
Procedure: as §1, §2

[5] = tested on: Staphylococcus aureus; assay: MIC micro broth dilution assay; parameters: key to stacked score activity, 100/MIC, S: stacked score = 100/MIC; details: S. aureus
Procedure: as §1, §2

[6] = tested on: ESKAPE pathogens; assay: MIC micro broth dilution assay, statements and stacked scores over all ESKAPE pathogens; details: letters E,S,K,A,P,E = ESKAPE pathogens, — = none
Procedure: as §1
as §2, with “The minimum inhibitory concentration (MIC) for the combinatorial libraries, deconvolved 2157 library, and individual compounds were determined as follows. Broth” for “Broth”

Structure (SMILES)	stacked score activity, 100/MIC, K [1]	stacked score activity, 100/MIC, A [2]	stacked score activity, 100/MIC, E [3]	stacked score activity, 100/MIC, E [4]	stacked score activity, 100/MIC, S [5]	pathogens against which the compound showed activity at 5 ug/ml ([6]; dose 5 ug/ml)	pathogens against which the compound showed activity at 10 ug/ml ([6]; dose 10 ug/ml)	pathogens against which the compound showed activity at 25 ug/ml [6]
CCCCCCCN1C(=N)NC[C@@H]1CCCCN1C[C@H](C(C)CC)N(CCc2cccc(C)c2)C1=N (stereo partly shown) [Compound 32]	0	4	10	0	33			ESAP
CCC(C)CN1CCN(CCCC[C@H]2CNC(=N)N2CC2CCCCC2)C1=N (stereo partly shown) [Compound 39]	0	0	0	0	0			
CCC(C)[C@H]1CN(CCCC[C@H]2CNC(=N)N2CC2CCC(C)CC2)C(=N)N1 (stereo partly shown) [Compound 49]	0	0	0	0	4			
CCC(C)[C@H]1CN(CCCC[C@H]2CNC(=N)N2CC2CCCCC2)C(=N)N1CCc1cccc(C)c1 (stereo partly shown) [Compound 41]	0	0	0	0	4			
N=C1NC[C@H](CCCCN2C[C@@H](Cc3cccc4ccccc34)N(CCc3ccc(-c4ccccc4)cc3)C2=N)N1CCC12CC3CC(CC(C3)C1)C2 [Compound 24]	0	0	4	0	10			
CCC[C@@H]1CN(CCCC[C@H]2CNC(=N)N2CC2CCCCC2)C(=N)N1 [Compound 43]	0	0	0	0	0			
CCC[C@@H]1CN(CCCC[C@H]2CNC(=N)N2CC2CCC(C)CC2)C(=N)N1CCc1cccc(C)c1 (stereo partly shown) [Compound 53]	0	0	0	0	4			
CCC[C@@H]1CN(CCCC[C@H]2CNC(=N)N2CC2CCC(C)CC2)C(=N)N1 (stereo partly shown) [Compound 52]	0	0	0	0	4			
CCC(C)CN1C(=N)N(CCCC[C@H]2CNC(=N)N2CC2CCC(C)CC2)C[C@@H]1C(C)CC (stereo partly shown) [Compound 51]	0	0	0	0	4			
CCCCCCCN1C(=N)NC[C@@H]1CCCCN1C[C@@H](CCC)N(CC(C)CC)C1=N (stereo partly shown) [Compound 36]	0	0	0	0	4			
CCC(C)CN1C(=N)N(CCCC[C@H]2CNC(=N)N2CC2CCCCC2)C[C@@H]1C(C)CC (stereo partly shown) [Compound 42]	0	0	0	0	4			
CCCCCCCN1C(=N)NC[C@@H]1CCCCN1CCNC1=N [Compound 28]	0	0	0	0	0			
CCCCCCCN1C(=N)NC[C@@H]1CCCCN1C[C@H](C(C)CC)NC1=N (stereo partly shown) [Compound 31]	0	0	0	0	4			
CCCCCCCN1C(=N)NC[C@@H]1CCCCN1C[C@H](C(C)CC)N(CC(C)CC)C1=N (stereo partly shown) [Compound 33]	0	0	0	0	4			
N=C1NCCN1CCCC[C@H]1CNC(=N)N1CC1CCCCC1 [Compound 37]	0	0	0	0	0			
CCCCCCCN1C(=N)NC[C@@H]1CCCCN1CCN(CC(C)CC)C1=N (stereo partly shown) [Compound 30]	0	0	0	0	0			
CCCCCCCN1C(=N)NC[C@@H]1CCCCN1CCN(CCc2cccc(C)c2)C1=N [Compound 29]	0	0	0	0	4			

Second part, led by results:

stacked score activity, 100/MIC, K [1]	stacked score activity, 100/MIC, A [2]	stacked score activity, 100/MIC, E [3]	stacked score activity, 100/MIC, E [4]	stacked score activity, 100/MIC, S [5]	Structure (SMILES)	pathogens against which the compound showed activity at 5 ug/ml ([6]; dose 5 ug/ml)	pathogens against which the compound showed activity at 10 ug/ml ([6]; dose 10 ug/ml)	pathogens against which the compound showed activity at 25 ug/ml [6]
20	20	10	20	20	N=C1NC[C@H](CCCCN2C[C@@H](Cc3cccc4ccccc34)N(CCCCC3CCCCC3)C2=N)N1CCCCC1CCCCC1 [Compound 14]	SKAE	ESKAE	ESKAPE
0	0	0	0	0	CCC(C)[C@H]1CN(CCCC[C@H]2CNC(=N)N2CC2CCCCC2)C(=N)N1 (stereo partly shown) [Compound 40]			
0	0	0	0	4	CCCCCCCN1C(=N)NC[C@@H]1CCCCN1C[C@@H](CCC)NC1=N [Compound 34]			
0	0	0	0	0	CCC(C)CN1CCN(CCCC[C@H]2CNC(=N)N2CC2CCC(C)CC2)C1=N (stereo partly shown) [Compound 48]			
0	0	0	0	4	Cc1cccc(CCN2CCN(CCCC[C@H]3CNC(=N)N3CC3CCCCC3)C2=N)c1 [Compound 38]			
0	0	0	0	4	CCC[C@@H]1CN(CCCC[C@H]2CNC(=N)N2CC2CCC(C)CC2)C(=N)N1CC(C)CC (stereo partly shown) [Compound 54]			
0	0	0	0	4	CCC[C@@H]1CN(CCCC[C@H]2CNC(=N)N2CC2CCCCC2)C(=N)N1CCc1cccc(C)c1 [Compound 44]			
0	0	0	0	0	CC1CCC(CN2C(=N)NC[C@@H]2CCCCN2CCNC2=N)CC1 (stereo partly shown) [Compound 46]			
0	0	0	0	4	Cc1cccc(CCN2CCN(CCCC[C@H]3CNC(=N)N3CC3CCC(C)CC3)C2=N)c1 (stereo partly shown) [Compound 47]			
0	0	0	0	4	CCC[C@@H]1CN(CCCC[C@H]2CNC(=N)N2CC2CCCCC2)C(=N)N1CC(C)CC (stereo partly shown) [Compound 45]			
